Assay results as given in patent US9682931B2, “Aryloyl(oxy or amino)pentafluorosulfanylbenzene compound, pharmaceutically acceptable salt thereof, and prodrugs thereof” (UBE INDUSTRIES, LTD., priority 2013, dated 2017).
In brackets after ≈: the same amount, converted by molar mass.

Key:
Format in all cases: cell-based
[1] = test system: K562 human leukemia-derived cell lines; assay: K562 human leukemia cell-proliferation inhibition test; conditions: Homo sapiens, K562, 72 h, K562 cells, 72 hours, viable cells counted with trypan blue; read-out: IC50
Description: K562 Human Leukemia Cell-Proliferation Inhibition Test
A cell proliferation inhibition test using K562 cells was performed. The activity in the presence of a test substance was compared to the activity in the presence of green tea polyphenol (GTP). The materials used in the test are as follows.
Cells: K562 human leukemia-derived cell lines (DS Pharma Biomedical Co., Ltd.)
Control Substance: Green Tea Polyphenols, abbreviation: GTP (LKT Laboratories, Inc.)
Culture solution: 10% equine serum-supplemented RPMI1640 medium
A test substance and a control substance were used by dissolving each of them in DMSO. To a solution (0.99 mL) containing K562 cells in a cell concentration of 20,000 cells/mL, a test substance solution or a control substance solution (0.01 mL) was added and the cells were cultured. Seventy two hours later, a part of the cells was stained with trypan blue and viable cells were counted by a counting chamber.
In Table 2, “IC50” denotes the sample concentration inhibiting 50% of cell proliferation

[2] = test system: Streptococcus mutans NBRC13955; assay: Antimicrobial test on oral bacteria, bactericidal effect test; conditions: for bactericidal action on Streptococcus mutans cells: one minute
Description: Antimicrobial Test on Oral Bacteria
1. Antimicrobial Action on Streptococcus mutans
The antimicrobial effect of two types of test substances (Compound 3 and Compound 7) on Streptococcus mutans was evaluated.
1) Preparation of Test Microbe
A microbe strain (Streptococcus mutans NBRC13955) cryopreserved was cultured in TSA medium at 36±1° C. for 18 to 24 hours. The cultured microbial cells were transferred to a fresh TSA medium and cultured at 36±1° C. for 18 to 24 hours. The grown colonies were scraped out and suspended in sterile ion-exchange water to prepare a solution having about 10^7 CFU/mL, which was used as a test microbe solution.
2) Preparation of Test Solution […]
3) Bactericidal Effect Test
From individual test solutions previously kept at 25±2° C., an aliquot (10 mL) was dispensed to centrifuge tubes of 50 mL in volume. To each of the centrifuge tubes, the test microbe solution (0.1 mL) was inoculated, mixed and allowed to react. After a predetermined reaction time, the resultant test solution (1 mL) was taken out. To this, 9 mL of a deactivator (SCDLP medium (manufactured by Eiken Chemical Co., Ltd.), which was confirmed as effective deactivator), was added to inactivate the bactericidal component of the test solution. The number of microbial cells in the resultant sample solution was determined. The solution obtained by carrying out the same procedure except that a sterile physiological saline was used in place of the test solution, was used as a control.
4) Determination of the Number of Microbial Cells
Using the sample solution as a stock solution, serial dilution was performed with a sterile physiological saline to obtain 10-fold serial dilutions. 1 mL of the sample solution or each of the dilutions was aseptically transferred to a petri dish, mixed with TSA medium (20 mL), solidified and cultured at 36±2° C. for 48 hours. After the culture, colonies grown on the medium were counted to obtain the number of test microbe cells per test solution (1 mL) (lower limit of quantification: 10 CFU/test solution (1 mL)).

[3] = test system: Staphylococcus aureus MRSAIID 1677 (methicillin-resistant staphylococcus aureus; MRSA); assay: Antimicrobial test, minimum inhibitory concentration (MIC), MRSA; conditions: 36±1° C., 24 hours
Description: Antimicrobial/Antifungal Test
Measurement of the Minimum Inhibitory Concentration (MIC) of a Test Substance
The minimum inhibitory concentration (MIC) of test substances (Compound 3, Compound 7) on a microorganism was measured.
1) Test Microbe (a) Staphylococcus aureus MRSAIID 1677 (methicillin-resistant staphylococcus aureus; MRSA) (b) Trichophyton mentagrophytes NBRC5466 (trichophyton)
2) Preparation of Microbe Solution for Inoculation
Test microbe (a): A strain cryopreserved was smeared on TSA medium and cultured at 36±1° C. for 24 hours. Grown colonies were scraped out and suspended in a test organism preparation solution, filtered with absorbent cotton. The number of cells was controlled to be about 10^6-7 CFU/mL. The test microbe solution prepared was serially diluted by 10-fold and cultured at 36±1° C. for 48 hours and the microbe cells were counted.
3) Serial Dilution of Test Substance
Two-fold serial dilutions of a test substance were prepared in the following procedure. To a test substance (1 mg), a medium (5 mL) for measuring the sensitivity of each microbe strains was added to obtain a stock solution of 200 μg/mL. […]
A test microbe solution (5 μL) was added dropwise to individual wells of the microplate. […] After culture, whether the microbe proliferated or not was determined by the naked eye. […]

SMILES | IC50 [1] [µg/mL] | number of test microbe cells ([2]; 0.001 w/v %, working time 1 min) | number of test microbe cells ([2]; 0.001 w/v %, working time 5 min) | bactericidal action on Streptococcus mutans cells ([2]; 0.005 w/v %) | number of test microbe cells ([2]; 0.005 w/v %, working time 1 min) | number of test microbe cells ([2]; 0.005 w/v %, working time 5 min) | MIC [3] [µg/mL] | number of the cells reduced (fraction) ([2]; 0.01 w/v %, 5 minutes) | number of test microbe cells ([2]; 0.01 w/v %, working time 1 min) | number of test microbe cells ([2]; 0.01 w/v %, working time 5 min) | bactericidal action on Streptococcus mutans cells ([2]; 0.05 w/v %) | number of test microbe cells ([2]; 0.05 w/v %, working time 1 min) | number of test microbe cells ([2]; 0.05 w/v %, working time 5 min)
O=C(Oc1ccc(S(F)(F)(F)(F)F)cc1)c1cc(O)c(O)c(O)c1 [Compound 7, 4-(3,4,5-trihydroxybenzoyloxy)pentafluorosulfanylbenzene] | 1.9 (≈ 5.1 µM) | 460,000 CFU/test solution (1 mL) | 280,000 CFU/test solution (1 mL) | almost completely killed | <10 CFU/test solution (1 mL) | <10 CFU/test solution (1 mL) | 0.8 (≈ 2.15 µM) |  |  |  |  |  | 
O=C(Nc1ccc(S(F)(F)(F)(F)F)cc1)c1cc(O)c(O)c(O)c1 [Compound 3, 4-(3,4,5-trihydroxybenzoylamino)pentafluorosulfanylbenzene] | 0.81 (≈ 2.18 µM) |  |  |  |  |  | 6.3 (≈ 17 µM) | 1/10 | 380,000 CFU/test solution (1 mL) | 34,000 CFU/test solution (1 mL) | almost completely killed | <10 CFU/test solution (1 mL) | <10 CFU/test solution (1 mL)
